Measured values taken from patent US11492348B2, “Tri-substituted aryl and heteroaryl derivatives as modulators of PI3-kinase and autophagy pathways” (Neuropore Therapies, Inc., priority 2018, dated 2022).

Biological target: PI3Kα (Homo sapiens (Human), UniProt P42336)
Test: Inhibition of PI3Kα (ADP-Glo kinase activity assay, ATP to ADP conversion)
Assay type: biochemical
Conditions: 25 μM PIP2:PS, 60 μM ATP, 30 min reaction, luminescence
Protocol: Quantification of ATP to ADP conversion as a measure of PI3Kα activity. Active PI3Kα (Life Technologies), in the presence or absence of PI3Kα inhibitor, was reacted with PIP2:PS (Life Technologies), a substrate specifically optimized for use with Class I PI3 kinases, and ultrapure ATP (Promega). The conversion of ATP to ADP by PI3Kα was measured as luminescence signal via Promega ADP-Glo kinase activity assay. Assay was validated using published PI3Kα inhibitors LY294002, PI-103, BYL719, GDC0198 and also DMSO vehicle control.
Compounds were prepared at 100× final concentration as a 12-point, 1:3 serial-dilution in DMSO series, with DMSO control as 12th point. Compound was then diluted in (25 mM HEPES pH 7.5, 1 mM EGTA, 0.3% CHAPS) prior to addition to PI3Kα. Active PI3Kα diluted to 0.24 ng/μL (1.1 nM) in (50 mM HEPES pH 7.5, 6 mM MgCl2, 1 mM EGTA, 200 mM NaCl, 0.03% CHAPS, 8 mM DTT) was incubated with compound for 0 hr and 3 hr prior to the start of the reaction. 25 μM PIP2:PS and 60 μM ATP were diluted from stock in (25 mM HEPES pH 7.5, 1 mM EGTA, 0.3% CHAPS) and added to initiate the PI3Kα reaction. Reaction time was 30 minutes. ATP to ADP conversion was measured in Luminescence Counts on DTX880 Plate Reader (Beckman Coulter). Compound IC50s were reported using GraphPad Prism software. Analytical method was non-linear regression, 4-parameter curve fit with bottom fit to validated PI3Kα inhibitor reference controls and no top fit (floating top).

PI3Kα, sequence (P42336 whole entry): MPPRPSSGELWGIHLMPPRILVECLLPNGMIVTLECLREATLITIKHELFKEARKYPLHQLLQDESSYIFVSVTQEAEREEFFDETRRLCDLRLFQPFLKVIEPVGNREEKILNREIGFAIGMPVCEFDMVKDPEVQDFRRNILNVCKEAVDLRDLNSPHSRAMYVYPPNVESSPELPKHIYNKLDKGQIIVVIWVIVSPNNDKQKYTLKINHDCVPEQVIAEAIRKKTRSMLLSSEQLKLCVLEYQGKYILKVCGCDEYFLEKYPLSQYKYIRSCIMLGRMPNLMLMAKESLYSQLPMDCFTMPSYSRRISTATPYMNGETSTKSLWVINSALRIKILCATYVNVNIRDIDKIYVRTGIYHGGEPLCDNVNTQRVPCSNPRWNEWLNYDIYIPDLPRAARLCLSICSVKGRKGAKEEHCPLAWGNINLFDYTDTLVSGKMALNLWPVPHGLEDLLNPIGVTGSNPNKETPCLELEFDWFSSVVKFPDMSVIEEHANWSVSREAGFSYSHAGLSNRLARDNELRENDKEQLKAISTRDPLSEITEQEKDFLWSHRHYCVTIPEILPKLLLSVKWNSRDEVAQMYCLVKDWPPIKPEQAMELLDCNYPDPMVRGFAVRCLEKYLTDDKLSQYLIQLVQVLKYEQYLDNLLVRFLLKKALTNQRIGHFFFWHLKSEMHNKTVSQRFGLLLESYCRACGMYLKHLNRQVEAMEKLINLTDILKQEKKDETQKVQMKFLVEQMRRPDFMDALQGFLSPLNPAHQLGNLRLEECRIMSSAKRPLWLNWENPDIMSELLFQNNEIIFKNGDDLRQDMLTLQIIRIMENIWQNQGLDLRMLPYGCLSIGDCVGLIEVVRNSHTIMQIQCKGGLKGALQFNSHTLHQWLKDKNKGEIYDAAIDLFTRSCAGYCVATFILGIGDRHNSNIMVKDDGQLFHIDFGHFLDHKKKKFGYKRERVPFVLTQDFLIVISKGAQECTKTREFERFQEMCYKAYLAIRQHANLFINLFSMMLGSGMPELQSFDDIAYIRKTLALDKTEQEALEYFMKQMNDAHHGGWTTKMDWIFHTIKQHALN
PI3Kα, sequence (P27986 whole entry partner): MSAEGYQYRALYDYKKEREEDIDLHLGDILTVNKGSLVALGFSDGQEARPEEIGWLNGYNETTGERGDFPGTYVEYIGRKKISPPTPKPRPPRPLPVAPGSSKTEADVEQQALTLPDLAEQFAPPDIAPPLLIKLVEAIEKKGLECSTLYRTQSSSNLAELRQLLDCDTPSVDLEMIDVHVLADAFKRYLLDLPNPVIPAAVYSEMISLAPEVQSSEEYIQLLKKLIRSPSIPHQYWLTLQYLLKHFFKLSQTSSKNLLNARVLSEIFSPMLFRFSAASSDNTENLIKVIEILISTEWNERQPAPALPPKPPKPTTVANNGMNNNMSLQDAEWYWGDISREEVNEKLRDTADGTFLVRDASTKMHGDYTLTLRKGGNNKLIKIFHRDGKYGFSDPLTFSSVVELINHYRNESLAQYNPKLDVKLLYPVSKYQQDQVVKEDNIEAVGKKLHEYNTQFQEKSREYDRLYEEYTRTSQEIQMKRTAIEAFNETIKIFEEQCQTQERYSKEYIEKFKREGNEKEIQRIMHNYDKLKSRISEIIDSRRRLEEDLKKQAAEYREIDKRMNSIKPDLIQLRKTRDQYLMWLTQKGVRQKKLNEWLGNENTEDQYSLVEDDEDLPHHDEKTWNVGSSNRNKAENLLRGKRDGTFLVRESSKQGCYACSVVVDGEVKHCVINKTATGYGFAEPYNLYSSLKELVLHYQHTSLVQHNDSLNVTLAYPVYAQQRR

| Structure (SMILES) | PI3Ka IC50 |
| --- | --- |
| Nc1ncc(-c2cc(N3CCOCC3)cc(S(=O)(=O)c3ccccc3)c2)c(C(F)(F)F)n1 [Compound 3, 5-(3-morpholino-5-(phenylsulfonyl)phenyl)-4-(trifluoromethyl)pyrimidin-2-amine] | 2.0 µM |
| Nc1ncc(-c2cc(N3CCOCC3)cc(S(=O)(=O)C3CN(C4CCOCC4)C3)c2)cn1 [Compound 66, 5-(3-morpholino-5-((1-(tetrahydro-2H-pyran-4-yl)azetidin-3-yl)sulfonyl)phenyl)pyrimidin-2-amine] | 1.3 µM |
| CC(C)N1CCC(S(=O)(=O)c2cc(-c3cnc(N)nc3)cc(N3CCOCC3)c2)C1.Cl (stereo not shown) [Compound 89, 5-(3-((1-isopropylpyrrolidin-3-yl)sulfonyl)-5-morpholinophenyl)pyrimidin-2-amine hydrochloride] | 2.5 µM |
| Nc1ncc(-c2cc(C(=O)C3CCOC3)cc(N3CCOCC3)n2)cn1 (stereo not shown) [Compound 149, (2-(2-aminopyrimidin-5-yl)-6-morpholinopyridin-4-yl)(tetrahydrofuran-3-yl)methanone] | 0.0140 µM |
| CC(C)N1CC(S(=O)(=O)c2cc(-c3cnc(N)nc3)cc(N3CCOCC3)c2)C1 [Compound 65, 5-(3-((1-isopropylazetidin-3-yl)sulfonyl)-5-morpholinophenyl)pyrimidin-2-amine] | 0.87 µM |
| COc1nc(N)ccc1-c1cc(N2CCOCC2)cc(S(=O)(=O)Cc2ccc(F)cc2)c1 [Compound 44, 5-(3-((4-fluorobenzyl)sulfonyl)-5-morpholinophenyl)-6-methoxypyridin-2-amine] | 13 µM |
| CC(C)(C)OC(=O)N1CCN(c2cc(-c3cnc(N)nc3)cc(S(=O)(=O)c3ccccc3)c2)CC1 [Compound 24, tert-butyl 4-(3-(2-aminopyrimidin-5-yl)-5-(phenylsulfonyl)phenyl)piperazine-1-carboxylate] | 21 µM |
| COc1ccc(-c2cc(N3CCOCC3)cc(S(=O)(=O)c3ccccc3)c2)cn1 [Compound 5, 4-(3-(6-methoxypyridin-3-yl)-5-(phenylsulfonyl)phenyl)morpholine] | 12 µM |
| Nc1ncc(-c2cc(N3CCOCC3)cc(S(=O)(=O)c3ccc(C(F)(F)F)cc3)c2)cn1 [Compound 14, 5-(3-morpholino-5-((4-(trifluoromethyl)phenyl)sulfonyl)phenyl) pyrimidin-2-amine] | 7.3 µM |
| Nc1cc(C(F)(F)F)c(-c2cc(S(=O)(=O)c3ccccc3)cc(N3CCOCC3)n2)cn1 [Compound 144, 6-morpholino-4-(phenylsulfonyl)-4′-(trifluoromethyl)-[2,3′-bipyridin]-6′-amine] | 0.39 µM |
| CC(C)(C)OC(=O)N1CCC(N2CC(S(=O)(=O)c3cc(-c4cnc(N)nc4)cc(N4CCOCC4)c3)C2)CC1 [Compound 67, tert-butyl 4-(3-((3-(2-aminopyrimidin-5-yl)-5-morpholinophenyl)sulfonyl)azetidin-1-yl)piperidine-1-carboxylate] | 0.80 µM |
| Nc1ncc(-c2cc(N3CCOCC3)cc(S(=O)(=O)c3ccc4ccccc4c3)c2)cn1 [Compound 9, 5-(3-morpholino-5-(naphthalen-2-ylsulfonyl)phenyl)pyrimidin-2-amine] | 1.5 µM |
| CC(C)(C)OC(=O)N1CC(S(=O)(=O)c2cc(-c3cnc(N)cn3)cc(N3CCOCC3)c2)C1 [Compound 69, tert-butyl 3-((3-(5-aminopyrazin-2-yl)-5-morpholinophenyl)sulfonyl)azetidine-1-carboxylate] | 0.54 µM |
| Nc1ncc(-c2cc(N3CCCCC3)cc(S(=O)(=O)c3ccccc3)c2)cn1 [Compound 25, 5-(3-(phenylsulfonyl)-5-(piperidin-1-yl)phenyl)pyrimidin-2-amine] | 30 µM |
| COc1ncc(-c2cc(N3CCOCC3)cc(S(=O)(=O)c3ccccc3)c2)cn1 [Compound 2, 4-(3-(2-methoxypyrimidin-5-yl)-5-(phenylsulfonyl)phenyl)morpholine] | 5.0 µM |
| Cc1cc(N)nnc1-c1cc(N2CCOCC2)cc(S(=O)(=O)Cc2ccc(F)cc2F)c1 [Compound 99, 6-(3-((2,4-difluorobenzyl)sulfonyl)-5-morpholinophenyl)-5-methylpyridazin-3-amine] | 4.3 µM |
| CC(C)N1CCC(S(=O)(=O)c2cc(-c3cnc(N)nc3)cc(N3CCOCC3)c2)CC1 [Compound 90, 5-(3-((1-isopropylpiperidin-4-yl)sulfonyl)-5-morpholinophenyl)pyrimidin-2-amine] | 7.22 µM |
| CC(C)(O)CNc1ccc(S(=O)(=O)c2cc(-c3cnc(N)nc3)cc(N3CCOCC3)c2)cc1 [Compound 37, 1-((4-((3-(2-aminopyrimidin-5-yl)-5-morpholinophenyl)sulfonyl)phenyl)amino)-2-methylpropan-2-ol] | 2.0 µM |
| CCNC(=O)Nc1ccc(-c2cc(N3CCOCC3)cc(S(=O)(=O)Cc3ccc(F)cc3)c2)cc1OC [Compound 40, 1-ethyl-3-(3′-((4-fluorobenzyl)sulfonyl)-3-methoxy-5′-morpholino-[1,1′-biphenyl]-4-yl)urea] | 6.5 µM |
| Nc1cc(C(F)(F)F)c(-c2cc(N3CCOCC3)cc(S(=O)(=O)c3ccccc3)c2)cn1 [Compound 6, 5-(3-morpholino-5-(phenylsulfonyl)phenyl)-4-(trifluoromethyl)pyridin-2-amine] | 3.8 µM |
| O=S(=O)(Cc1ccc(F)cc1)c1cc(-c2ccc3c(c2)OCCN3)cc(N2CCOCC2)c1 [Compound 45, 7-(3-((4-fluorobenzyl)sulfonyl)-5-morpholinophenyl)-3,4-dihydro-2H-benzo[b][1,4]oxazine] | 5.9 µM |
| Nc1ncc(-c2cc(N3CCOCC3)cc(S(=O)(=O)Cc3ccccc3)c2)c(C(F)(F)F)n1 [Compound 33, 5-(3-(benzylsulfonyl)-5-morpholinophenyl)-4-(trifluoromethyl)pyrimidin-2-amine] | 0.98 µM |
